# Test results published in US20220135567A1, “TYK2 PSEUDOKINASE LIGANDS” (Ventyx Biosciences, Inc., priority 2019, published 2022).
# Test system: IFN-a/Jak1Tyk2
# Experiment: Co-stimulation assay in lysed whole blood: IFNa (JAK1/TYK2) stimulated STAT1 phosphorylation
# Format: cell-based
# Conditions: 20 min, lysed human whole blood, IFNa 100 ng/mL + GM-CSF 10 ng/mL, pSTAT1 by flow cytometry
# Procedure, shortened: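 Red-cell-lysed human whole blood, pretreated with compound for 1 h at 37°C, was stimulated 20 min at 37°C with IFNa (100 ng/mL final) plus GM-CSF (10 ng/mL final). Cells were then fixed/lysed, permeabilised in Perm Buffer III and stained overnight for pSTAT1 (PE) and pSTAT5. Read-out by flow cytometry.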
row,SMILES,IC50
1,"[2H]C([2H])([2H])Nc1cc(Nc2cc(F)cc3c2OCCO3)nc2c(C(=O)N[C@@H]3C[C@@H]3F)cnn12 [Compound 80, 5-((7-fluoro-2,3-dihydrobenzo[b][1,4]dioxin-5-yl)amino)-N-((1R,2S)-2-fluorocyclopropyl)-7-((methyl-d3)amino)pyrazolo[1,5-a]pyrimidine-3-carboxamide]",< 100 nM
2,"CNc1cc(Nc2cccc3c2CCCO3)nc2c(C(=O)NCC(C)(C)CO)cnn12 [Compound 81, 5-(chroman-5-ylamino)-N-(3-hydroxy-2,2-dimethylpropyl)-7-(methylamino)pyrazolo[1,5-a]pyrimidine-3-carboxamide]",100 to 1000 nM
3,"CNc1cc(Nc2cccc3c2CCCO3)nc2c(C(=O)NC3CC3)cnn12 [Compound 82, 5-(chroman-5-ylamino)-N-cyclopropyl-7-(methylamino)pyrazolo[1,5-a]pyrimidine-3-carboxamide]",100 to 1000 nM
4,"[2H]C([2H])([2H])n1cccc(Nc2cc(NC)n3ncc(C(=O)N[C@H]4C[C@H]4F)c3n2)c1=O [Compound 83, N-((1S,2R)-2-fluorocyclopropyl)-5-((1-(methyl-d3)-2-oxo-1,2-dihydropyridin-3-yl)amino)-7-(methylamino)pyrazolo[1,5-a]pyrimidine-3-carboxamide]",100 to 1000 nM
5,"[2H]C([2H])([2H])Nc1cc(Nc2cccc3c2OCCO3)nc2c(C(=O)NCC(C)(C)CO)cnn12 [Compound 84, 5-((2,3-dihydrobenzo[b][1,4]dioxin-5-yl)amino)-N-(3-hydroxy-2,2-dimethylpropyl)-7-((methyl-d3)amino)pyrazolo[1,5-a]pyrimidine-3-carboxamide]",< 100 nM
6,"[2H]C([2H])([2H])n1cccc(Nc2cc(NC)n3ncc(C(=O)N[C@@H]4C[C@@H]4F)c3n2)c1=O [Compound 85, N-((1R,2S)-2-fluorocyclopropyl)-5-((1-(methyl-d3)-2-oxo-1,2-dihydropyridin-3-yl)amino)-7-(methylamino)pyrazolo[1,5-a]pyrimidine-3-carboxamide]",< 100 nM
7,"CNc1cc(Nc2cccn(C)c2=O)nc2c(C(=O)NC3CC(O)C3)cnn12 (stereo not shown) [Compound 86, N-(3-hydroxycyclobutyl)-5-((1-methyl-2-oxo-1,2-dihydropyridin-3-yl)amino)-7-(methylamino)pyrazolo[1,5-a]pyrimidine-3-carboxamide]",> 3000 nM
8,"CNc1cc(Nc2cccn(C)c2=O)nc2c(C(=O)NC3CC(C#N)C3)cnn12 (stereo not shown) [Compound 87, N-(3-cyanocyclobutyl)-5-((1-methyl-2-oxo-1,2-dihydropyridin-3-yl)amino)-7-(methylamino)pyrazolo[1,5-a]pyrimidine-3-carboxamide]",100 to 1000 nM
9,"CNc1cc(Nc2cccn(C)c2=O)nc2c(C(=O)NC3CC(OC)C3)cnn12 (stereo not shown) [Compound 88, N-(3-methoxycyclobutyl)-5-((1-methyl-2-oxo-1,2-dihydropyridin-3-yl)amino)-7-(methylamino)pyrazolo[1,5-a]pyrimidine-3-carboxamide]",> 3000 nM
10,"CNc1cc(Nc2cccc3c2OCCC3)nc2c(C(=O)NC3CCC3)cnn12 [Compound 89, 5-(chroman-8-ylamino)-N-cyclobutyl-7-(methylamino)pyrazolo[1,5-a]pyrimidine-3-carboxamide]",< 100 nM
11,"CNc1cc(Nc2cccc3c2OCCC3)nc2c(C(=O)NCC(C)(C)CO)cnn12 [Compound 90, 5-(chroman-8-ylamino)-N-(3-hydroxy-2,2-dimethylpropyl)-7-(methylamino)pyrazolo[1,5-a]pyrimidine-3-carboxamide]",< 100 nM
12,"CNc1cc(Nc2cccn(C)c2=O)nc2c(C(=O)NC3CC(F)(F)C3)cnn12 [Compound 91, N-(3,3-difluorocyclobutyl)-5-((1-methyl-2-oxo-1,2-dihydropyridin-3-yl)amino)-7-(methylamino)pyrazolo[1,5-a]pyrimidine-3-carboxamide]",1000 to 10000 nM
13,"CNc1cc(Nc2cc(Cl)cc3c2OCCO3)nc2c(C(=O)NCC(C)(C)CO)cnn12 [Compound 92, 5-((7-chloro-2,3-dihydrobenzo[b][1,4]dioxin-5-yl)amino)-N-(3-hydroxy-2,2-dimethylpropyl)-7-(methylamino)pyrazolo[1,5-a]pyrimidine-3-carboxamide]",< 100 nM
14,"[2H]C([2H])([2H])n1cccc(Nc2cc(NC)n3ncc(C(=O)NC4CCC4)c3n2)c1=O [Compound 93, N-cyclobutyl-5-((1-(methyl-d3)-2-oxo-1,2-dihydropyridin-3-yl)amino)-7-(methylamino)pyrazolo[1,5-a]pyrimidine-3-carboxamide]",< 100 nM
15,"[2H]C([2H])([2H])Nc1cc(Nc2cccn(C)c2=O)nc2c(C(=O)NC3CCC3)cnn12 [Compound 94, N-cyclobutyl-5-((1-methyl-2-oxo-1,2-dihydropyridin-3-yl)amino)-7-((methyl-d3)amino)pyrazolo[1,5-a]pyrimidine-3-carboxamide]",< 100 nM
16,"CNc1cc(Nc2cccc3c2OCCO3)nc2c(C(=O)NC3(C#N)CC3)cnn12 [Compound 95, N-(1-cyanocyclopropyl)-5-((2,3-dihydrobenzo[b][1,4]dioxin-5-yl)amino)-7-(methylamino)pyrazolo[1,5-a]pyrimidine-3-carboxamide]",< 100 nM
17,"CNc1cc(Nc2cccc3c2OCCO3)nc2c(C(=O)NC3CCC3)cnn12 [Compound 96, N-cyclobutyl-5-((2,3-dihydrobenzo[b][1,4]dioxin-5-yl)amino)-7-(methylamino)pyrazolo[1,5-a]pyrimidine-3-carboxamide]",< 100 nM
18,"CNc1cc(Nc2cccc3c2OCCO3)nc2c(C(=O)NC3C[C@@H]3F)cnn12 (stereo partly drawn) [Compound 97, 5-((2,3-dihydrobenzo[b][1,4]dioxin-5-yl)amino)-N-((2S)-2-fluorocyclopropyl)-7-(methylamino)pyrazolo[1,5-a]pyrimidine-3-carboxamide]",< 100 nM
19,"[2H]C([2H])([2H])Nc1cc(Nc2cc(F)cc3c2OCCO3)nc2c(C(=O)NCC(C)(C)CO)cnn12 [Compound 98, 5-((7-fluoro-2,3-dihydrobenzo[b][1,4]dioxin-5-yl)amino)-N-(3-hydroxy-2,2-dimethylpropyl)-7-((methyl-d3)amino)pyrazolo[1,5-a]pyrimidine-3-carboxamide]",< 100 nM
20,"CNc1cc(Nc2cccn(-c3cccc(C)n3)c2=O)nc2c(C(=O)NC3CC(C#N)C3)cnn12 (stereo not shown) [Compound 99, N-(3-cyanocyclobutyl)-5-((6′-methyl-2-oxo-2H-[1,2′-bipyridin]-3-yl)amino)-7-(methylamino)pyrazolo[1,5-a]pyrimidine-3-carboxamide]",1000 to 10000 nM
21,"CNc1cc(Nc2cccn(-c3cccc(C)n3)c2=O)nc2c(C(=O)NC3CC(O)C3)cnn12 (stereo not shown) [Compound 100, N-(3-hydroxycyclobutyl)-5-((6′-methyl-2-oxo-2H-[1,2′-bipyridin]-3-yl)amino)-7-(methylamino)pyrazolo[1,5-a]pyrimidine-3-carboxamide]",1000 to 10000 nM
22,"CNc1cc(Nc2cccn(-c3ccc(OC)nn3)c2=O)nc2c(C(=O)N[C@@H]3C[C@@H]3F)cnn12 [Compound 101, N-((1R,2S)-2-fluorocyclopropyl)-5-((1-(6-methoxypyridazin-3-yl)-2-oxo-1,2-dihydropyridin-3-yl)amino)-7-(methylamino)pyrazolo[1,5-a]pyrimidine-3-carboxamide]",< 100 nM
